Experimental data from US12298319B2, “Method for measuring alpha value of muscarinic M1 receptor positive allosteric modulators” (Takeda Pharmaceutical Company Limited, priority 2017, dated 2025).
Like-named read-outs stand apart in the source and are kept apart here.

Tests used:
human M1Rs = molecular target: T1, human M1Rs (Homo sapiens, UniProt P11229); assay: Ca2+ flux assay in CHO-K1 cells stably expressing human M1R (FLIPR), agonist and PAM mode, operational model fit; assay type: cell-based; settings: for log β Mean: allosteric effect of PAM on signaling efficacy of ACh; for log β Mean / Log TB Mean: operational model; for EC50: mean of three independent experiments; for Log TB Mean: intrinsic agonistic efficacy
T1 sequence (P11229 1-460): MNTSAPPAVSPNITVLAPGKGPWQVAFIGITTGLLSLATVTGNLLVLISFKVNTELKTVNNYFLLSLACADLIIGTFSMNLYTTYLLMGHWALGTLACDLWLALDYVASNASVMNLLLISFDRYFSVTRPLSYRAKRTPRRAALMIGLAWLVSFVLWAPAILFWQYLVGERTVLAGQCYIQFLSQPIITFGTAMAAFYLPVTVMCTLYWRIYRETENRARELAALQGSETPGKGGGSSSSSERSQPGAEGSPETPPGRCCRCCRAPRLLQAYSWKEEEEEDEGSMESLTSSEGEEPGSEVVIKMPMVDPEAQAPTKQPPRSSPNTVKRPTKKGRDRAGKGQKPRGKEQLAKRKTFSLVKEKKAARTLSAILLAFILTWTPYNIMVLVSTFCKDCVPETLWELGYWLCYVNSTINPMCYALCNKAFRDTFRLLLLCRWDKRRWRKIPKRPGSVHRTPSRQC
Description: Chinese hamster ovary (CHO-K1) cells stably expressing human M1Rs (hM1R-CHO) were plated in black-walled clear-bottomed 384-well plates (5,000 cells/well) and cultured overnight at 37° C. in the presence of 5% CO2 in Ham's F-12 medium supplemented with 10% FBS and 100 U/mL penicillin-streptomycin. The following day, the medium was removed and incubated with assay buffer (Hank's balanced salt solution with 20 mM HEPES, 0.1% fatty acid free BSA) containing 2.5 μg/mL Fluo-4 AM and 1.25 mM probenecid for 30 min at 37° C. in the presence of 5% CO2. After 30 min incubation at room temperature, cells were stimulated with compounds. In this experiment, ACh and each PAM were added to the cells simultaneously. Calcium flux was measured using a fluorescence imaging plate reader (FLIPR) tetra system (Molecular Devices, Sunnyvale, CA).
[formula] the pharmacological effect and Emax denotes the maximum possible effect; [A] and [B] are the concentrations of ACh and PAM, respectively; KA and KB denote the equilibrium dissociation constants of ACh and PAM, respectively; τA and τB represent the operational measures of ACh and PAM efficacy, respectively; a is the binding cooperativity between ACh and PAM (activity to enhance ACh affinity to M1R); β is the magnitude of the allosteric effect of PAM on the signaling efficacy of ACh; n denotes the slope factor. For the analysis of functional data, the equilibrium dissociation constant of each PAM and the cooperativity between ACh and each PAM were fixed to those determined from the binding experiments.
EC50, eliciting 50% of the maximal response of an endogenous ligand, ACh, reflects the agonistic activity for M1R under conditions without ACh. […] Results of the in vitro functional parameters for M1R represent the mean and S.E.M. of three independent experiments. N/A stands for “not available”. PAM means positive allosteric modulator (Table 1).

isolated mouse ileum = assay: In vitro Magnus assay, EFS-induced ileum contraction; settings: for Ileum contraction at 1 μM (% of cont.) Mean: isolated mouse ileum with EFS
Description: After overnight fasting, mice were sacrificed by decapitation. The ileum was quickly dissected out and suspended in ice-cold Krebs solution with the following composition (in mM): NaCl, 120.7; KCl, 5.9; CaCl2, 2.5; MgCl2, 1.2; […], 15.5; NaH2PO4, 1.2; and glucose, 11.5. Longitudinal segments of ileum (10-15 mm long) were detached of mesentery and adipose tissue, and mounted in organ baths containing 10 mL of Krebs solution aerated with 95% O2/5% CO2. Bath temperature was maintained at 37° C. The isolated ileum was given a passive load of 0.5 g. The contractile response of the isolated ileum was continuously recorded with isometric transducer (MLT050/A, ADInstruments, New South Wales, Australia) and recorder (PowerLab 8/30 ML870 and Octal Bridge Amp ML228, ADInstruments).
Platinum electrodes (3-20 mm apart, Iwashiya Kishimoto Medical Instruments, Kyoto, Japan) were mounted on both sides of the isolated ileum. The electrodes were connected to an electric stimulator (SEG-3104, Nihon Kohden, Tokyo, Japan) and an amplifier (SIG-3140, Nihon Kohden) for EFS with square wave pulses (20 V over the electrodes, 50 ms duration, and 20 Hz frequency); pulse trains were lasting for 10 s with 20 s pause.
The EFS produced sustained tonic contraction, followed by relaxation. The contraction was measured as the maximum strength from the baseline. The effects of experimental substances on the maximum contraction were measured. At the beginning of each experiment, a series of control EFS cycles was tested for more than 1 h to observe stability of contractile response. The ileum with a steady contractile response elicited by control EFS during the 1 h was used to investigate the effect of test compounds.
After responses to control EFS reached a steady-state, the compounds were added to the Magnus bath cumulatively, without washing between the subsequent doses. The interval between two adjacent doses was always at least 5 min, thus the isolated preparations receive at least 10 pulses in each dose of the compounds. After cumulating all doses of compounds, the bath was washed three times, and the ilea were allowed to rest for further 30 min. The effect of each concentration of the compounds on ileum contraction induced by EFS was calculated from the average value of 10 responses of the maximum strength. Then the ileum contractile response was expressed as a ratio (%) of the mean maximum contraction to that obtained with the pre-treated DMSO (solvent) to obtain concentration-response curve. Due to very small size of relaxations, the effects of the compounds on them was not be analyzed.

M5R = molecular target: T2, M5R (Homo sapiens, UniProt P08912); assay: Ca2+ flux PAM activity against other muscarinic receptor subtypes, M5R; assay type: cell-based; settings: in the presence of EC20 ACh; read-out: PAM activity against other muscarinic receptor subtypes M5R pIP
T2 sequence (P08912 1-532): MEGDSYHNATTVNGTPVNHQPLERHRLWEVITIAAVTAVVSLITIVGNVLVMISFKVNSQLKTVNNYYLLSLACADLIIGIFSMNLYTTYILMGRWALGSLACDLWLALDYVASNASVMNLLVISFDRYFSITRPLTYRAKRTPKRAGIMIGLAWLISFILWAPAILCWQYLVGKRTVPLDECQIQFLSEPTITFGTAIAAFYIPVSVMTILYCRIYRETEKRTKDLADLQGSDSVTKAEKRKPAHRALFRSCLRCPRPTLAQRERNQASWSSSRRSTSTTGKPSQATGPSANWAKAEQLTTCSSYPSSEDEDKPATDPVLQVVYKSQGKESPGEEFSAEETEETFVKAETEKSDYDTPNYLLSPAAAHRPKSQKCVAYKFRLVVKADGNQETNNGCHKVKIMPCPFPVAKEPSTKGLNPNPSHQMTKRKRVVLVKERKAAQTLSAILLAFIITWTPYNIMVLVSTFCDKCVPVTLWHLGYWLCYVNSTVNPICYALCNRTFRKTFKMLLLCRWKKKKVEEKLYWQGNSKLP

[1] = inflection point in the presence of EC20 ACh, read-out: M1PAM activity pIP Mean (converted)
[2] = without ACh, read-out: M1 agonist activity pEC50 Mean (converted)

Cn1cc(-c2ccc(CN3Cc4cccc(Oc5c(F)cccc5C#N)c4C3=O)cc2)cn1 [Compound B, 3-fluoro-2-((2-(4-(1-methyl-1H-pyrazol-4-yl)benzyl)-3-oxo-2,3-dihydro-1H-isoindol-4-yl)oxy)benzonitrile]
log β Mean (human M1Rs): 0.58 | EC50 (human M1Rs; [1]): 40.7 nM | Log TB Mean (human M1Rs): −0.10 | EC50 (human M1Rs; [2]): 676 nM | Ileum contraction at 1 μM (% of cont.) Mean (isolated mouse ileum): 97 % of cont. | effect on EFS-induced ileum contraction (isolated mouse ileum; up to 1 μM): no effect | EC50 (M5R): > 10000 nM

Cn1cc(-c2ccc(CN3Cc4cccc(OCCN5CCCCC5)c4C3=O)cc2)cn1 [Compound F, 2-(4-(1-methyl-1H-pyrazol-4-yl)benzyl)-7-(2-(piperidin-1-yl)ethoxy)isoindolin-1-one]
log β Mean (human M1Rs): 0.87 | EC50 (human M1Rs; [1]): 79.4 nM | Log TB Mean (human M1Rs): 0.15 | EC50 (human M1Rs; [2]): 2090 nM | Ileum contraction at 1 μM (% of cont.) Mean (isolated mouse ileum): 102 % of cont. | EC50 (M5R): > 10000 nM

O=c1c2cn(Cc3ccc(-n4cccn4)cc3)c3ccccc3c-2nn1-c1ccccc1F [Compound E, 2-(2-fluorophenyl)-5-(4-(1H-pyrazol-1-yl)benzyl)-2,5-dihydro-3H-pyrazolo[4,3-c]quinolin-3-one, reference compound]
log β Mean (human M1Rs): −0.23 | EC50 (human M1Rs; [1]): 8.51 nM | Log TB Mean (human M1Rs): 0.65 | EC50 (human M1Rs; [2]): 219 nM | Ileum contraction at 1 μM (% of cont.) Mean (isolated mouse ileum): 106 % of cont. | EC50 (M5R): > 10000 nM

Cn1ccc(-c2ccc(CN3Cc4cccc(O[C@H]5CCCC[C@@H]5O)c4C3=O)cc2)n1 [Compound A, 7-(((1S,2S)-2-hydroxycyclohexyl)oxy)-2-(4-(1-methyl-1H-pyrazol-3-yl)benzyl)isoindolin-1-one]
log β Mean (human M1Rs): 0.13 | EC50 (human M1Rs; [1]): 10.2 nM | Log TB Mean (human M1Rs): 2.06 | EC50 (human M1Rs; [2]): 72.4 nM | augmentation of EFS-induced ileum contraction (isolated mouse ileum; 0.1 nM-1 μM): concentration-dependent augmentation | Ileum contraction at 1 μM (% of cont.) Mean (isolated mouse ileum): 116 % of cont. | augmentation of EFS-induced ileum contraction with telenzepine (isolated mouse ileum; with 1 nM of telenzepine): suppressed | EC50 (M5R): > 10000 nM

Cn1cc(-c2ccc(CN3Cc4cccc(-c5ccn[nH]5)c4C3=O)cc2)cn1 [Compound G, 2-(4-(1-methyl-1H-pyrazol-4-yl)benzyl)-7-(1H-pyrazol-5-yl)isoindolin-1-one]
log β Mean (human M1Rs): 0.85 | EC50 (human M1Rs; [1]): 275 nM | EC50 (human M1Rs; [2]): > 10000 nM | Ileum contraction at 1 μM (% of cont.) Mean (isolated mouse ileum): 93 % of cont. | EC50 (M5R): > 10000 nM

Cn1cc(-c2ccc(Cc3cc4c(=O)n([C@H]5CCCC[C@@H]5O)cnc4c4ccccc34)cn2)cn1 [Compound C, 3-((1S,2S)-2-hydroxycyclohexyl)-6-((6-(1-methyl-1H-pyrazol-4-yl)pyridin-3-yl)methyl)benzo[h]quinazoline-4(3H)-one, reference compound]
log β Mean (human M1Rs): −0.39 | EC50 (human M1Rs; [1]): 2.09 nM | Log TB Mean (human M1Rs): 1.49 | EC50 (human M1Rs; [2]): 1.62 nM | Ileum contraction at 1 μM (% of cont.) Mean (isolated mouse ileum): 104 % of cont. | EC50 (M5R): > 10000 nM
